Results on 7 compounds are retold here after PubChem BioAssay AID1963865 (Molecular Pharmacology Branch, DTP, NCI, 2024).

The assay concerns KRAS PDC multicell spheroid viability. As to the kind of experiment: Anticancer human tumor 825966-067-R-J1-PDC patient-derived colon carcinoma cell line growth inhibition [KRAS2]. Particulars: for viability, T/C: stronger effect = lower value. The method, boiled down:
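KRAS-mutant tumor cells were grown as spheroids with HUVEC endothelial cells and human MSCs as stroma. Targeted agents were tested alone and with KRAS pathway inhibitors. Doses started at or near clinical Cmax, or 10 microM, descending half-log.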

Where [1] appears, read: curve of first compound, second compound 0.1 µM.
[2] abbreviates: curve of first compound, second compound 0.316 µM.
[3] abbreviates: curve of first compound, second compound 1 µM.
[4] abbreviates: curve of first compound, second compound 3.16 µM.
The mark [5] stands for this setting: curve of first compound, second compound 10 µM.
The mark [6] stands for this setting: second compound 0.1 µM, first compound 0.0316 µM.
Where [7] appears, read: second compound 0.1 µM, first compound 0.1 µM.
Setting [8] is: second compound 0.1 µM, first compound 0.316 µM.
Setting [9] is: second compound 0.1 µM, first compound 1 µM.
[10] abbreviates: second compound 0.1 µM, first compound 3.16 µM.
Where [11] appears, read: second compound 0.1 µM, first compound 10 µM.
The mark [12] stands for this setting: second compound 0.316 µM, first compound 0.0316 µM.
[13] abbreviates: second compound 0.316 µM, first compound 0.1 µM.
The mark [14] stands for this setting: second compound 0.316 µM, first compound 0.316 µM.
Where [15] appears, read: second compound 0.316 µM, first compound 1 µM.
[16] abbreviates: second compound 0.316 µM, first compound 3.16 µM.
[17] abbreviates: second compound 0.316 µM, first compound 10 µM.
Setting [18] is: second compound 1 µM, first compound 0.0316 µM.
Where [19] appears, read: second compound 1 µM, first compound 0.1 µM.
Where [20] appears, read: second compound 1 µM, first compound 0.316 µM.
[21] abbreviates: second compound 1 µM, first compound 1 µM.
[22] abbreviates: second compound 1 µM, first compound 3.16 µM.
Where [23] appears, read: second compound 1 µM, first compound 10 µM.
[24] abbreviates: second compound 3.16 µM, first compound 0.0316 µM.
The mark [25] stands for this setting: second compound 3.16 µM, first compound 0.1 µM.
[26] abbreviates: second compound 3.16 µM, first compound 0.316 µM.
[27] abbreviates: second compound 3.16 µM, first compound 1 µM.
[28] abbreviates: second compound 3.16 µM, first compound 3.16 µM.
Setting [29] is: second compound 3.16 µM, first compound 10 µM.
[30] abbreviates: second compound 10 µM, first compound 0.0316 µM.
The mark [31] stands for this setting: second compound 10 µM, first compound 0.1 µM.
Where [32] appears, read: second compound 10 µM, first compound 0.316 µM.
Where [33] appears, read: second compound 10 µM, first compound 1 µM.
Where [34] appears, read: second compound 10 µM, first compound 3.16 µM.
Where [35] appears, read: second compound 10 µM, first compound 10 µM.

Molecules are shown by their SMILES. pIC50: −log10 of the molar value.
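Note: spheroids exposed to compounds for 7 days.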
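Throughout, for viability, T/C: 100% = DMSO vehicle control viability.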

Broadly, the pIC50 is the negative decadic logarithm of the IC50, by convention in mol/L. One may read the viability, T/C as the result in the treated group divided by that in the control group, in per cent. Regarding `CC1(C)CCC(CN2CCN(c3ccc(C(=O)NS(=O)(=O)c4ccc(NCC5CCOCC5)c([N+](=O)[O-])c4)c(Oc4cnc5[nH]ccc5c4)c3)CC2)=C(c2ccc(Cl)cc2)C1` + COc1cc2nc(C)nc(NC(C)c3cc(N)cc(C(F)(F)F)c3)c2cc1OC1CCOC1, the pIC50 reads like this: under setting [1], 5.68; under setting [2], 5.71; under setting [3], 5.70; under setting [4], 5.66; under setting [5], 7.50. Further, the viability, T/C is, setting by setting: under setting [6], 94.7%; under setting [7], 86.3%; under setting [8], 107%; under setting [9], 111%; under setting [10], 21.4%; under setting [11], 5.44%. For the same compound, the viability, T/C by setting is: under setting [12], 99.2%; under setting [13], 94.8%; under setting [14], 90.6%; under setting [15], 91.5%; under setting [16], 19.7%; under setting [17], 6.45%. Moreover, the viability, T/C under setting [18] was 118%; the viability, T/C under setting [19] was 96%; the viability, T/C under setting [20] was 114%; the viability, T/C under setting [21] is 106%; the viability, T/C under setting [22] was 12.3%; the viability, T/C under setting [23] was 3.36%. In addition, the viability, T/C runs as follows: under setting [24], 139%; under setting [25], 119%; under setting [26], 130%; under setting [27], 180%; under setting [28], 8.21%; under setting [29], 3.86%. Further, the viability, T/C is, setting by setting: under setting [30], 14.3%; under setting [31], 48.2%; under setting [32], 68.2%; under setting [33], 59.6%; under setting [34], 1.84%; under setting [35], 0.72%.

Take `O=C(c1cc(Cc2n[nH]c(=O)c3ccccc23)ccc1F)N1CCN(C(=O)C2CC2)CC1`: the viability, T/C (compound 0.1 µM) was 88.5% [middle of 5 runs] and the viability, T/C (compound 3.16 µM) was 79.6% [middle of 5 runs]. Besides, the pIC50 (curve of compound) was under 5.00.

For the compound `CC1COCCN1c1cc(-c2ccnn2C)c2ccnc(-c3ccn[nH]3)c2n1` (stereo unspecified) + COc1cc2nc(C)nc(NC(C)c3cc(N)cc(C(F)(F)F)c3)c2cc1OC1CCOC1, the pIC50 runs as follows: under setting [1], under 5.50; under setting [2], under 5.50; under setting [3], 6.82; under setting [4], 7.16; under setting [5], 7.91. Moreover, the viability, T/C was 106% (second compound 0.1 µM, first compound 0.01 µM); 122% under setting [6]; 67.6% under setting [7]; 55% under setting [8]; 55.8% under setting [9]; 40.1% under setting [10]. The viability, T/C is, setting by setting: (second compound 0.316 µM, first compound 0.01 µM) 112%; under setting [12], 112%; under setting [13], 58.3%; under setting [14], 58.1%; under setting [15], 52.7%; under setting [16], 38.8%. For the same compound, the viability, T/C is 74.6% (second compound 1 µM, first compound 0.01 µM); 80.4% under setting [18]; 61.5% under setting [19]; 28.3% under setting [20]; 34.8% under setting [21]; 27.1% under setting [22]. Further, the viability, T/C is 130% (second compound 3.16 µM, first compound 0.01 µM); 97.9% under setting [24]; 27.4% under setting [25]; 27.5% under setting [26]; 23.9% under setting [27]; 19.8% under setting [28]. Further, the viability, T/C reads like this: (second compound 10 µM, first compound 0.01 µM) 56.6%; under setting [30], 21.1%; under setting [31], 7.19%; under setting [32], 3.93%; under setting [33], 2.81%; under setting [34], 0.97%.

With `Cn1nccc1Nc1nccc(-c2cc3c(s2)C(C)(C)N(CCN2CCOCC2)C3=O)n1` + CNCc1ccccc1-c1csc(C(C)Nc2nc(C)nc3cc(OC)c(OC)cc23)c1, the pIC50 is, setting by setting: under setting [1], under 5.00; under setting [2], under 5.00; under setting [3], 5.30; under setting [4], 7.27; under setting [5], over 7.50. For the same compound, the viability, T/C is 108% under setting [6]; 96.9% under setting [7]; 123% under setting [8]; 125% under setting [9]; 96.1% under setting [10]; 82.3% under setting [11]. In addition, the viability, T/C is 94.8% under setting [12]; 103% under setting [13]; 137% under setting [14]; 75.6% under setting [15]; 82.2% under setting [16]; 75.8% under setting [17]. Also, the viability, T/C under setting [18] is 118%; the viability, T/C under setting [19] is 137%; the viability, T/C under setting [20] was 134%; the viability, T/C under setting [21] was 98.1%; the viability, T/C under setting [22] is 66.8%; the viability, T/C under setting [23] is 29%. For the same compound, the viability, T/C is 78% under setting [24]; 13.4% under setting [25]; 12.4% under setting [26]; 0.56% under setting [27]; 0.23% under setting [28]; 0.47% under setting [29]. Also, the viability, T/C is, setting by setting: under setting [30], 0.39%; under setting [31], 0.21%; under setting [32], 0.16%; under setting [33], 0.16%; under setting [34], 2.28%; under setting [35], 0.24%.

In the case of `CN(C)C/C=C/C(=O)Nc1cc2c(Nc3ccc(F)c(Cl)c3)ncnc2cc1O[C@H]1CCOC1`, the viability, T/C (compound 0.1 µM) is 105% [middle of 5 runs]. The pIC50 (curve of compound) was under 7.00.

As usually defined, the IC50 is the concentration at which inhibition is half-maximal. Regarding `COC(=O)c1ccc2c(C(=Nc3ccc(N(C)C(=O)CN4CCN(C)CC4)cc3)c3ccccc3)c(O)[nH]c2c1`, the viability, T/C was 93.7% [middle of 5 runs] (compound 0.0316 µM); 90.7% [middle of 5 runs] (compound 0.1 µM); 92.2% [middle of 5 runs] (compound 0.316 µM); 0.53% [middle of 5 runs] (compound 3.16 µM); 0.29% [middle of 4 runs] (compound 10 µM). For the same compound, where the note is “curve of compound”, the IC50 was 1.24 µM [middle of 5 runs].

For the compound `CCNC(=O)CC1N=C(c2ccc(Cl)cc2)c2cc(OC)ccc2-n2c(C)nnc21` (stereo unspecified) + COc1cc2nc(C)nc(NC(C)c3cc(N)cc(C(F)(F)F)c3)c2cc1OC1CCOC1, the pIC50 under setting [1] was under 5.00; the pIC50 under setting [2] was under 5.00; the pIC50 under setting [3] was under 5.00; the pIC50 under setting [4] was 5.61; the pIC50 under setting [5] is 7.25. The viability, T/C is 97.2% under setting [6]; 119% under setting [7]; 104% under setting [8]; 80.3% under setting [9]; 73.4% under setting [10]; 69.1% under setting [11]. Besides, the viability, T/C is 97.6% under setting [12]; 111% under setting [13]; 98.2% under setting [14]; 75.2% under setting [15]; 59.9% under setting [16]; 69.1% under setting [17]. Moreover, the viability, T/C is 101% under setting [18]; 109% under setting [19]; 118% under setting [20]; 77.1% under setting [21]; 98.8% under setting [22]; 70.8% under setting [23]. Besides, the viability, T/C is, setting by setting: under setting [24], 131%; under setting [25], 97.6%; under setting [26], 114%; under setting [27], 71.7%; under setting [28], 41%; under setting [29], 47%. Moreover, the viability, T/C is, setting by setting: under setting [30], 77.8%; under setting [31], 19%; under setting [32], 17.4%; under setting [33], 8.42%; under setting [34], 13.1%; under setting [35], 1.45%.
